# Assay: recombinant UMI read abundance after kanamycin selection (control-corrected) (log10(CPM+1)); higher = more efficient recombination; extreme values may be limits of the assay; sequences stand for … in AGTGCAGAGAAAATCGGCCAGTTTTCTCTGCCTGCAGTCCGCATGCCGTGGGACCCCTTGGGTTCTAACCTGTTGCCTAGATTTATGCAGCGGACTGCCTTTCTCCCAAAGTGATAAACCGG…AGGTTGGTTTCACT; site = the 11-nt donor
# Method in brief: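 In Escherichia coli, a pool of donor and donor-binding-loop pairs, each with a 12-nt UMI, was tested for the IS621 bridge recombinase. Plating was on IPTG (0.07 mM) plus kanamycin, or without selection, in two replicates. Recombinant UMIs were amplified by PCR across the donor–target junction and sequenced, and counts were reported as log10(CPM+1) after averaging and control-derived scaling.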
# 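Note: IS621 bridge recombinase in Escherichia coli cells against a fixed T5 target plasmid.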
row,Sequence,recombinant UMI read abundance (log10)
1,CGTTAGTCATGGACCGGTTTTCCCGGTAATCCGTATTTGAG (site CGTTAGACTCT),0.0321
2,CGTTAGTCATGGACCGGTTTTCCCGGTAATCCGTATTTGAG (site CGTTAGCCTCT),0.0076
3,CGTTAGTCATGGACCGGTTTTCCCGGTAATCCGTATTTGAG (site CGTTAGGCTCT),0.0227
4,CGTTAGTCATGGACCGGTTTTCCCGGTAATCCGTATTTGAG (site CGTTAGTCTCT),2.05
5,CGTTCACCATGGACCGGTTTTCCCGGTAATCCGTATTTGCT (site CGATCATCTAG),0
6,CGTTCACCATGGACCGGTTTTCCCGGTAATCCGTATTTGCT (site CGTTCACCTAG),0.00366
7,CGTTCATCATGGACCGGTTTTCCCGGTAATCCGTATTTGAT (site CGATCATCTAG),0
8,CGTTCATCATGGACCGGTTTTCCCGGTAATCCGTATTTGAT (site CGTTCATCTAT),0
9,CGTTCGACATGGACCGGTTTTCCCGGTAATCCGTATTTGAG (site CGTTAGACTCT),0.0143
10,CGTTCGACATGGACCGGTTTTCCCGGTAATCCGTATTTGAG (site CGTTCGACTCT),0.635
11,CGTTCGACATGGACCGGTTTTCCCGGTAATCCGTATTTGAG (site CGTTGGACTCT),0.0108
12,CGTTCGACATGGACCGGTTTTCCCGGTAATCCGTATTTGAG (site CGTTTGACTCT),0.0134
13,CGTTGAACATGGACCGGTTTTCCCGGTAATCCGTATTTGGA (site CGTTGAACTTC),0.945
14,CGTTGAGCATGGACCGGTTTTCCCGGTAATCCGTATTTGCG (site CGTTGAGCTCG),1.2
15,CGTTGGGCATGGACCGGTTTTCCCGGTAATCCGTATTTGCT (site CGTTAGGCTAG),0.41
16,CGTTGGGCATGGACCGGTTTTCCCGGTAATCCGTATTTGCT (site CGTTCGGCTAG),0
17,CGTTGGGCATGGACCGGTTTTCCCGGTAATCCGTATTTGCT (site CGTTGGGCTAG),1.65
18,CGTTGGGCATGGACCGGTTTTCCCGGTAATCCGTATTTGCT (site CGTTTGGCTAG),0
19,CGTTGTCCATGGACCGGTTTTCCCGGTAATCCGTATTTGAA (site CGTTGTCCTTT),0.00747
20,CGTTGTCCATGGACCGGTTTTCCCGGTAATCCGTATTTGTA (site CGTTGTCCTTA),0.0342
21,CGTTTAACATGGACCGGTTTTCCCGGTAATCCGTATTTGGC (site CGTTTAACTGC),0.793
22,CGTTTAGCATGGACCGGTTTTCCCGGTAATCCGTATTTGCT (site CGTTTAGCTAG),0
23,CGTTTAGCATGGACCGGTTTTCCCGGTAATCCGTATTTGCT (site CGTTTCGCTAG),0
24,CGTTTAGCATGGACCGGTTTTCCCGGTAATCCGTATTTGCT (site CGTTTGGCTAG),0
25,CGTTTAGCATGGACCGGTTTTCCCGGTAATCCGTATTTGCT (site CGTTTTGCTAG),0

row,Sequence,recombinant UMI read abundance (log10)
1,CGTTTGACATGGACCGGTTTTCCCGGTAATCCGTATTTGCT (site CGTTTGACTAG),2.38
2,CGTTTGACATGGACCGGTTTTCCCGGTAATCCGTATTTGCT (site CGTTTGCCTAG),0
3,CGTTTGACATGGACCGGTTTTCCCGGTAATCCGTATTTGCT (site CGTTTGGCTAG),1.12
4,CGTTTGACATGGACCGGTTTTCCCGGTAATCCGTATTTGCT (site CGTTTGTCTAG),0
5,CGTTTGCCATGGACCGGTTTTCCCGGTAATCCGTATTTGCT (site CGTTTGACTAG),0
6,CGTTTGCCATGGACCGGTTTTCCCGGTAATCCGTATTTGCT (site CGTTTGCCTAG),0.79
7,CGTTTGCCATGGACCGGTTTTCCCGGTAATCCGTATTTGCT (site CGTTTGGCTAG),0.00559
8,CGTTTGCCATGGACCGGTTTTCCCGGTAATCCGTATTTGCT (site CGTTTGTCTAG),0
9,CGTTTGGCATGGACCGGTTTTCCCGGTAATCCGTATTTGCG (site CGTTTGGCTAG),0
10,CGTTTGGCATGGACCGGTTTTCCCGGTAATCCGTATTTGCG (site CGTTTGGCTCG),0.142
11,CGTTTGGCATGGACCGGTTTTCCCGGTAATCCGTATTTGCG (site CGTTTGGCTGG),0
12,CGTTTGGCATGGACCGGTTTTCCCGGTAATCCGTATTTGCG (site CGTTTGGCTTG),0
13,CGTTTGGCATGGACCGGTTTTCCCGGTAATCCGTATTTGCT (site AGTTTGGCTAG),0
14,CGTTTGGCATGGACCGGTTTTCCCGGTAATCCGTATTTGCT (site CATTTGGCTAG),0
15,CGTTTGGCATGGACCGGTTTTCCCGGTAATCCGTATTTGCT (site CCTTTGGCTAG),0
16,CGTTTGGCATGGACCGGTTTTCCCGGTAATCCGTATTTGCT (site CGATTGGCTAG),0
17,CGTTTGGCATGGACCGGTTTTCCCGGTAATCCGTATTTGCT (site CGCTTGGCTAG),0
18,CGTTTGGCATGGACCGGTTTTCCCGGTAATCCGTATTTGCT (site CGGTTGGCTAG),0
19,CGTTTGGCATGGACCGGTTTTCCCGGTAATCCGTATTTGCT (site CGTATGGCTAG),0.00345
20,CGTTTGGCATGGACCGGTTTTCCCGGTAATCCGTATTTGCT (site CGTCTGGCTAG),0.00793
21,CGTTTGGCATGGACCGGTTTTCCCGGTAATCCGTATTTGCT (site CGTGTGGCTAG),0.00452
22,CGTTTGGCATGGACCGGTTTTCCCGGTAATCCGTATTTGCT (site CGTTAGGCTAG),0
23,CGTTTGGCATGGACCGGTTTTCCCGGTAATCCGTATTTGCT (site CGTTCGGCTAG),0.0122
24,CGTTTGGCATGGACCGGTTTTCCCGGTAATCCGTATTTGCT (site CGTTGGGCTAG),0
25,CGTTTGGCATGGACCGGTTTTCCCGGTAATCCGTATTTGCT (site CGTTTAGCTAG),0

row,Sequence,recombinant UMI read abundance (log10)
1,CGTTTGGCATGGACCGGTTTTCCCGGTAATCCGTATTTGCT (site CGTTTCGCTAG),0
2,CGTTTGGCATGGACCGGTTTTCCCGGTAATCCGTATTTGCT (site CGTTTGACTAG),0
3,CGTTTGGCATGGACCGGTTTTCCCGGTAATCCGTATTTGCT (site CGTTTGCCTAG),0
4,CGTTTGGCATGGACCGGTTTTCCCGGTAATCCGTATTTGCT (site CGTTTGGCTAA),0.00833
5,CGTTTGGCATGGACCGGTTTTCCCGGTAATCCGTATTTGCT (site CGTTTGGCTAC),0.00533
6,CGTTTGGCATGGACCGGTTTTCCCGGTAATCCGTATTTGCT (site CGTTTGGCTAG),0
7,CGTTTGGCATGGACCGGTTTTCCCGGTAATCCGTATTTGCT (site CGTTTGGCTAT),0.00603
8,CGTTTGGCATGGACCGGTTTTCCCGGTAATCCGTATTTGCT (site CGTTTGGCTCG),0.00605
9,CGTTTGGCATGGACCGGTTTTCCCGGTAATCCGTATTTGCT (site CGTTTGGCTGG),0
10,CGTTTGGCATGGACCGGTTTTCCCGGTAATCCGTATTTGCT (site CGTTTGGCTTG),0
11,CGTTTGGCATGGACCGGTTTTCCCGGTAATCCGTATTTGCT (site CGTTTGTCTAG),0
12,CGTTTGGCATGGACCGGTTTTCCCGGTAATCCGTATTTGCT (site CGTTTTGCTAG),0
13,CGTTTGGCATGGACCGGTTTTCCCGGTAATCCGTATTTGCT (site CTTTTGGCTAG),0
14,CGTTTGGCATGGACCGGTTTTCCCGGTAATCCGTATTTGCT (site GGTTTGGCTAG),0
15,CGTTTGGCATGGACCGGTTTTCCCGGTAATCCGTATTTGCT (site TGTTTGGCTAG),0.00607
16,CTAAATGCATGGACCGGTTTTCCCGGTAATCCGTATTTGAG (site CTAAATGCTCT),2.87
17,CTAAGCACATGGACCGGTTTTCCCGGTAATCCGTATTTGCT (site CTAAGCACTAG),1.9
18,CTAAGCCCATGGACCGGTTTTCCCGGTAATCCGTATTTGAA (site CTAAGCCCTTT),1.25
19,CTAAGCGCATGGACCGGTTTTCCCGGTAATCCGTATTTGAA (site CTAAGCGCTTT),2.02
20,CTAAGTCCATGGACCGGTTTTCCCGGTAATCCGTATTTGGA (site CTAAGTCCTTC),0.16
21,CTAATAACATGGACCGGTTTTCCCGGTAATCCGTATTTGAC (site CTAATAACTGT),2.34
22,CTAATAACATGGACCGGTTTTCCCGGTAATCCGTATTTGAC (site CTAGTATCTGT),0
23,CTAATAACATGGACCGGTTTTCCCGGTAATCCGTATTTGAT (site CTAATAACTAT),2.54
24,CTAATGACATGGACCGGTTTTCCCGGTAATCCGTATTTGAC (site CTAATGACTGT),1.47
25,CTAATTTCATGGACCGGTTTTCCCGGTAATCCGTATTTGCC (site CTAATTTCTGG),1.14
